# Data published in patent US20230203045A1, “INHIBITORS OF NEK7 KINASE” (Halia Therapeutics, Inc., priority 2020, published 2023).
# System: IL-1β release
# Test: IL-1β Release Assay
# Format: cell-based
# Conditions: Homo sapiens; PMA-differentiated THP-1 cells, 250 ng/mL LPS then 20 μM nigericin; cleaved IL-1β in media; read-out: I1-1β release IC50
# Description: Approximately 1.5 million THP-1 cells were plated in each well of a 6-well TC plate and incubated with 40 nM PMA in RPMI (10% FBS, 1% Penstrep) for 24 hours. The media was then removed and cells were rested in RPMI (10% FBS, 1% Penstrep) for 24 hours after which time the media was removed and cells were pre-treated for 2 hours with various concentrations of compounds of interest (typically serial 3-fold dilution in RPMI+5% FBS, concentrations ranging from 1 μM to 0.5 nM) in RPMI (5% FBS). The media was again removed and cells were incubated with 250 ng/mL LPS and compounds of interest (concentrations as above) in RMPI (5% FBS) for 2 hours. The media was removed for a last time and cells were incubated with 20 μM nigericin and compounds of interest (concentrations as above) in Opti-MEM for 30 minutes. Cell media was then collected and the amount of cleaved IL-1β was determined using a JESS instrument (Protein Simple) and standard protocols. Cleaved Il-1β antibody was obtained from Cell Signaling (catalogue #83186S) and was used at 1:20 dilution in antibody diluent 2. Protein Simple 1× anti-Rabbit HRP secondary antibody was used along with Protein Simple luminol and peroxide for chemiluminescent detection. Primary antibody incubation time was increased from 30 minutes to 60 minutes.
row,SMILES,IC50 [nM]
1,"CC(C)(C)c1cc(NC(=O)Nc2ccc(-c3nn(C4COC4)c4ncnc(N)c34)cc2F)on1 [Example 12, 1-(4-(4-amino-1-(oxetan-3-yl)-1H-pyrazolo[3,4-d]pyrimidin-3-yl)-2-fluorophenyl)-3-(3-(tert-butyl)isoxazol-5-yl)urea]",51 to 200
2,"CC(C)(C)c1cc(NC(=O)Nc2ccc(-c3nn(C4CC4)c4ncnc(N)c34)cc2F)on1 [Example 13, 1-(4-(4-amino-1-cyclopropyl-1H-pyrazolo[3,4-d]pyrimidin-3-yl)-2-fluorophenyl)-3-(3-(tert-butyl)isoxazol-5-yl)urea]",< 50
3,"CC(C)(C)c1cc(NC(=O)Nc2ccc(-c3nn(C4CCN(C5COC5)CC4)c4ncnc(N)c34)cc2F)on1 [Example 14, 1-(4-(4-amino-1-(1-(oxetan-3-yl)piperidin-4-yl)-1H-pyrazolo[3,4-d]pyrimidin-3-yl)-2-fluorophenyl)-3-(3-(tert-butyl)isoxazol-5-yl)urea]",< 50
4,"Nc1ncnc2c1c(-c1ccc(NC(=O)Nc3cc(C4(C(F)(F)F)CC4)no3)c(F)c1)nn2C1CC1 [Example 21, 1-(4-(4-amino-1-cyclopropyl-1H-pyrazolo[3,4-d]pyrimidin-3-yl)-2-fluorophenyl)-3-(3-(1-(trifluoromethyl)cyclopropyl)isoxazol-5-yl)urea]",< 50
5,"Nc1ncnc2c1c(-c1ccc(NC(=O)Nc3cc(C4(C(F)(F)F)CC4)on3)c(F)c1)nn2C1CC1 [Example 25, 1-(4-(4-amino-1-cyclopropyl-1H-pyrazolo[3,4-d]pyrimidin-3-yl)-2-fluorophenyl)-3-(5-(1-(trifluoromethyl)cyclopropyl)isoxazol-3-yl)urea]",51 to 200
6,"CC(C)(C)c1cc(NC(=O)Nc2ccc(-c3nn(C4CC4)c4ccnc(N)c34)cc2F)on1 [Example 30, 1-(4-(4-amino-1-cyclopropyl-1H-pyrazolo[4,3-c]pyridin-3-yl)-2-fluorophenyl)-3-(3-(tert-butyl)isoxazol-5-yl)urea]",< 50
7,"CC1(c2cc(NC(=O)Nc3ccc(-c4nn(C5CC5)c5ncnc(N)c45)cc3F)on2)CC1 [Example 32, 1-(4-(4-amino-1-cyclopropyl-1H-pyrazolo[3,4-d]pyrimidin-3-yl)-2-fluorophenyl)-3-(3-(1-methylcyclopropyl)isoxazol-5-yl)]",51 to 200
8,"CC(C)(C)c1nnc(NC(=O)Nc2ccc(-c3nn(C4CC4)c4ncnc(N)c34)cc2F)s1 [Example 33, 1-(4-(4-amino-1-cyclopropyl-1H-pyrazolo[3,4-d]pyrimidin-3-yl)-2-fluorophenyl)-3-(5-(tert-butyl)-1,3,4-thiadiazol-2-yl)]",201 to 500
9,"Nc1nccc2c1c(-c1ccc(NC(=O)Nc3cc(C4(C(F)(F)F)CC4)no3)c(F)c1)nn2C1CC1 [Example 45, 1-(4-(4-amino-1-cyclopropyl-1H-pyrazolo[4,3-c]pyridin-3-yl)-2-fluorophenyl)-3-(3-(1-(trifluoromethyl)cyclopropyl)isoxazol-5-yl)urea]",51 to 200

# Target: T1, full-length recombinant human NEK7 (Homo sapiens, UniProt Q8TDX7)
# T1 construct: full-length recombinant human NEK7; GST (N); purchased SignalChem Nab 09-10G; host or cells: Sf9 insect cells (baculovirus)
# T1 sequence (Q8TDX7 whole entry): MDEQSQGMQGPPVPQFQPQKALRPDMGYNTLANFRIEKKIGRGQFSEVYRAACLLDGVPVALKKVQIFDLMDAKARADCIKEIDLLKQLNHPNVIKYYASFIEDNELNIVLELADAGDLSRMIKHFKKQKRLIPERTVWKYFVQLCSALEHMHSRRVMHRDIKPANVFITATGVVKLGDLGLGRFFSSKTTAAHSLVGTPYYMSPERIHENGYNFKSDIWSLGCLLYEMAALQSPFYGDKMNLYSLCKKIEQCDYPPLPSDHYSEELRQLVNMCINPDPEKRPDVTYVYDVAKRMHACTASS
# Test: NEK7 Enzymatic Assay
# Format: biochemical
# Conditions: casein substrate, [33P]-ATP, 2 hours at room temperature
# Description: Casein substrate (from bovine milk, hydrolyzed and partially dephosphorylated mixture of α, β and κ caseins, obtained from Sigma Aldrich, catalogue #C4765, diluted in distilled water to a final concentration of 1 mg/mL) and full-length recombinant human NEK7 (expressed by baculovirus in Sf9 insect cells using a N-terminal GST tag, obtained from SignalChem, catalogue #Nab 09-10G, 0.1 μg/μL) were mixed in assay buffer (20 mM Hepes pH 7.5, 10 mM MgCl2, 1 mM EGTA, 0.02% Brij35, 0.02 mg/ml BSA, 0.1 mM Na3VO4, 2 mM DTT, 1% DMSO). Compounds of interest (serial 3-fold dilution in DMSO from 10 μM to 0.5 nM) or vehicle (1% DMSO) were dispensed into the kinase reaction mixture by Acoustic technology (Echo550; nanoliter range). After incubation at room temperature for 20 minutes, the kinase reaction was initiated by addition of [^33P]-ATP (specific activity 10 μCi/μl) and the mixture was incubated at room temperature for 2 hours. The reaction was then stopped by spotting the reaction mixture on strips of phosphocellulose P81 paper. Following washing, the radioactivity of the P81 paper was measured and kinase activity data were expressed as the percent remaining kinase activity in test samples compared to vehicle reactions. IC50 values and curve fits were obtained using Prism (GraphPad Software).
row,SMILES,IC50 [nM]
1,"CC(C)(C)c1nnc(NC(=O)Nc2ccc(-c3nn(C4CC4)c4ncnc(N)c34)cc2F)s1 [Example 33, 1-(4-(4-amino-1-cyclopropyl-1H-pyrazolo[3,4-d]pyrimidin-3-yl)-2-fluorophenyl)-3-(5-(tert-butyl)-1,3,4-thiadiazol-2-yl)]",> 501
2,"CC(C)(O)Cn1nc(-c2ccc(NC(=O)Nc3cc(C4(C(F)(F)F)CC4)no3)c(F)c2)c2c(N)ncnc21 [Example 66, 1-(4-(4-amino-1-(2-hydroxy-2-methylpropyl)-1H-pyrazolo[3,4-d]pyrimidin-3-yl)-2-fluorophenyl)-3-(3-(1-(trifluoromethyl)cyclopropyl)isoxazol-5-yl)urea]",151 to 300
3,"CC(C)(O)Cn1nc(-c2ccc(NC(=O)Nc3cc(C4(C(F)(F)F)CC4)on3)c(F)c2)c2c(N)ncnc21 [Example 67, 1-(4-(4-amino-1-(2-hydroxy-2-methylpropyl)-1H-pyrazolo[3,4-d]pyrimidin-3-yl)-2-fluorophenyl)-3-(5-(1-(trifluoromethyl)cyclopropyl)isoxazol-3-yl)urea]",301 to 500
4,"CN1CC(n2nc(-c3ccc(NC(=O)Nc4cc(C5(C(F)(F)F)CC5)on4)c(F)c3)c3c(N)ncnc32)C1 [Example 68, 1-(4-(4-amino-1-(1-methylazetidin-3-yl)-1H-pyrazolo[3,4-d]pyrimidin-3-yl)-2-fluorophenyl)-3-(5-(1-(trifluoromethyl)cyclopropyl)isoxazol-3-yl)urea]",> 501
